Consider four compounds from publication PMC3701632, “Kinetic Features of L,D-Transpeptidase Inactivation Critical for β-Lactam Antibacterial Activity” (PLoS ONE, 2013).

Series [1] addresses T1, Ldtfm catalytic domain (LdtfmC442A) (Enterococcus faecium, UniProt Q3Y185, C442A).
T1 construct: gene HMPREF0351_12555
Nature of the series: biochemical.

The test system of series [2] is CC1(C)S[C@@H]2[C@H](NC(=O)[C@H](N)c3ccccc3)C(=O)N2[C@H]1C(=O)O. Put plainly: purified protein. Format: biochemical, Enterococcus faecium. To be noted: covalent acylenzyme turnover, saturable step assigned to oxyanion formation, 5 µM enzyme, 100 mM sodium phosphate pH 6.0, 20°C.
The test system of series [3] is CO/N=C(\C(=O)N[C@@H]1C(=O)N2C(C(=O)O)=C(CSc3nc(=O)c(=O)[nH]n3C)CS[C@H]12)c1csc(N)n1. Nature of the series: purified protein. It counts as biochemical, Enterococcus faecium. The following applies: covalent acylenzyme turnover, saturable step assigned to oxyanion formation, 5 µM enzyme, 100 mM sodium phosphate pH 6.0, 20°C.

T1 sequence (Q3Y185 341-466 C442A): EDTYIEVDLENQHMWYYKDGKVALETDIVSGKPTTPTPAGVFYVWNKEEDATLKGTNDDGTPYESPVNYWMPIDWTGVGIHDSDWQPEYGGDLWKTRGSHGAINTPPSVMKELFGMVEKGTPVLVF

For the compound `CC1(C)S[C@@H]2[C@H](NC(=O)[C@H](N)c3ccccc3)C(=O)N2[C@H]1C(=O)O` [ampicillin], in series [1], the Kd – broadly, the free concentration of one partner at which half of the binding sites on the other are occupied at equilibrium, for simple one-to-one binding – stood at 79 mM.

`CO/N=C(\C(=O)N[C@@H]1C(=O)N2C(C(=O)O)=C(CSc3nc(=O)c(=O)[nH]n3C)CS[C@H]12)c1csc(N)n1` [ceftriaxone]: the equilibrium dissociation constant (Kd) in series [1] was determined as 44 mM. This Kd lies about 1.8-fold lower than the previous one.

`C[C@@H](O)[C@H]1C(=O)N2C(C(=O)O)=C(S[C@@H]3CN[C@H](C(=O)Nc4cccc(C(=O)O)c4)C3)[C@H](C)[C@H]12` [ertapenem] returned a Kd in series [1] of 50 mM.

Ldtfm (Enterococcus faecium DO) showed a K0.5 in series [2] of 370 ± 30 µM. Further, the kcat (as a rule, the number of substrate molecules converted per active site and unit of time at saturation) in series [2] turned out to be 0.003 ± 0.00017 s⁻¹; in series [3], 0.00045 ± 5e-05 s⁻¹.
